Measured values published in patent US20050004093A1, “Beta-lactamase inhibitor prodrug” (Pfizer Inc, priority 2003, published 2005).
In brackets after ≈: the same amount, converted by molar mass. Like-named read-outs stand apart in the source and are kept apart here.

Tests used:
[1] = Hepatic extraction, rat hepatocytes; assay type: in vitro ADME
From the text: (§1) Based upon this correlation, the rat was used to predict human absorption. […] Thus, oral bioavailability assessments in rats should correlate well with the fraction absorbed in humans.

[2] = Hepatic extraction, human hepatocytes; assay type: in vitro ADME
From the text: as §1

[3] = administered orally, rodents, preclinical studies; cited from earlier work
[4] = system: Streptococcus pneumoniae (02J1046); assay: Gerbil otitis media model; assay type: in vivo; details: single agent, oral, t.i.d. for 2 days, bacterial clearance day 4 post-challenge
[5] = system: Haemophilus influenzae (54A1218); assay: Gerbil otitis media model; assay type: in vivo; details: single agent, oral, t.i.d. for 2 days, bacterial clearance day 4 post-challenge
[6] = system: Moraxella catarrhalis (87A1115); assay: Murine systemic infection model; assay type: in vivo; details: single agent, oral, b.i.d. for 1 day, mice, survival day 4 post-challenge
[7] = system: Staphylococcus aureus (01A0400); assay: Murine systemic infection model; assay type: in vivo; details: single agent, oral, b.i.d. for 1 day, mice, survival day 4 post-challenge
[8] = system: Streptococcus pneumoniae (02J1095); assay: Murine systemic infection model; assay type: in vivo; details: single agent, oral, b.i.d. for 1 day, mice, survival day 4 post-challenge
[9] = system: Streptococcus pneumoniae (02J1095); assay: Murine pneumonia model; assay type: in vivo; details: single agent, oral, b.i.d. for 2 days, mice, survival day 10 post-challenge
[10] = system: clinical isolates of S. pneumoniae; assay: Susceptibility assay (NCCLS broth microdilution MIC), non-β-lactamase producing species; details: Streptococcus pneumoniae
[11] = Plasma stability, mouse plasma
Experimental: (§2) The incubation consisted of 990 μl of plasma preincubated for 5 minutes at 37° C. in a 96-well heat block. The incubation was initiated with the addition of 10 gl of a 10 mM stock of compound in 100% methanol. Serial aliquots (100 μl) were removed and transferred to 200 μl of 75/25 acetonitrile/3% perchloric acid at 0, 1, 2, 5, 10, 20, 30, and 60 minutes. The samples were centrifuged, the supernatants transferred to injection vials, and 20 μl was injected onto the HPLC in-line with a LC/MS single quadropole mass spectrometer. The LC/MS system was run in the negative ion mode.

[12] = Plasma stability, rat plasma
Experimental: as §2

[13] = Plasma stability, dog plasma
Experimental: as §2

[14] = Plasma stability, monkey plasma
Experimental: as §2

[15] = Plasma stability, human plasma
Experimental: as §2

[16] = target: T1, BRO-2 β-lactamase, M. catarrhalis 87A1178 ATCC43617 (Moraxella catarrhalis, UniProt Q59514); assay: IC50 against β-lactamase in cell extract (colorimetric, chromogenic cephalosporin); assay type: biochemical; details: BRO-2, M. catarrhalis 87A1178 ATCC43617 cell extract
T1 sequence (Q59514 1-313 D293G): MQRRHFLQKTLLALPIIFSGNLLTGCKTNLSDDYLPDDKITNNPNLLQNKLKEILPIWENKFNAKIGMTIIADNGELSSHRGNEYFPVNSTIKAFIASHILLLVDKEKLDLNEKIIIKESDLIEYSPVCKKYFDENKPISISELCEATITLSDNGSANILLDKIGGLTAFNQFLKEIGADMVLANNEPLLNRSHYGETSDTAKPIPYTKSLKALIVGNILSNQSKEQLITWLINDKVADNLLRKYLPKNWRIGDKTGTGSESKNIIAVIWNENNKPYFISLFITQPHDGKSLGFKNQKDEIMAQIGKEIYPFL

[17] = target: T2, ROB-1 β-lactamase, H. influenzae ATCC43334 (Haemophilus influenzae, UniProt P67918); assay: biochemical
T2 sequence (P67918 34-305): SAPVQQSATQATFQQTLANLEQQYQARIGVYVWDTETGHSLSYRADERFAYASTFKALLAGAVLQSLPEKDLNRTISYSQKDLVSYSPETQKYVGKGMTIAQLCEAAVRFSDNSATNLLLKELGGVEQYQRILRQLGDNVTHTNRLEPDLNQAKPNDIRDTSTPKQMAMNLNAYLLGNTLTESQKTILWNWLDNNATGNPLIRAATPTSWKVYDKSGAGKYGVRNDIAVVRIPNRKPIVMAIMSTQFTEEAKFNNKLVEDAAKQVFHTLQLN

[18] = target: T3, BRO-1 β-lactamase, M. catarrhalis 87A1115 (Moraxella catarrhalis, UniProt Q59514); assay: biochemical
T3 sequence (Q59514 26-313): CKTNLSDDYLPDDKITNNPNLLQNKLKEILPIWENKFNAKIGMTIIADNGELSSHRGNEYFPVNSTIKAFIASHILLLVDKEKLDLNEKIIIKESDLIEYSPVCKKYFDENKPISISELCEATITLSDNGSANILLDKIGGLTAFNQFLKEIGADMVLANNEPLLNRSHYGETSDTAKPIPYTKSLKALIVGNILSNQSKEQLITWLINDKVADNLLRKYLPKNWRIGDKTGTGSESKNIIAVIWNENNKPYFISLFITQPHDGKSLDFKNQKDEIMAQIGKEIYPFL

[19] = target: T4, Sme-I β-lactamase, Serratia S6 (Serratia marcescens, UniProt P52682); assay: biochemical
T4 sequence (P52682 28-294): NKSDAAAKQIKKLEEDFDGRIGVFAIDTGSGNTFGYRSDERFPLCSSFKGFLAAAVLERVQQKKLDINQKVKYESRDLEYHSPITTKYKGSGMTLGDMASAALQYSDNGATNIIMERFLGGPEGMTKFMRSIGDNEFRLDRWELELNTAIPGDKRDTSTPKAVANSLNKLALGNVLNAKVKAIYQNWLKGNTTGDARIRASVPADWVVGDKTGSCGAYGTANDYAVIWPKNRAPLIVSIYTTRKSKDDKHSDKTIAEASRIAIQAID
From the text: Biochemical activity against β-lactamases from other pathogens, including those associated with skin infections:

[20] = system: esterases; assay: Hydrolysis in the presence of esterases; assay type: in vitro ADME
From the text: as §1

Row | SMILES | ED50 [6] | ED50 [7] | ED50 [8] | ED50 [9] | IC50 [16] | IC50 [17] | IC50 [18] | IC50 [19] | half-life at 100 μM ([11]; mouse, plasma) | half-life at 100 μM ([12]; rat, plasma) | half-life at 100 μM ([13]; dog, plasma) | half-life at 100 μM ([15]; human, plasma) | other results
1 | CC1(C)C(C(=O)O)N2C(=O)C(CO)C2S1(=O)=O (stereo not drawn) [Prodrug 6-β-HMPAS, 6-β-hydroxymethylpenicillanic acid sulfone] | – | – | – | – | – | – | – | – | – | – | – | – | hepatic extraction [1]: minimal; hepatic extraction [2]: minimal; oral absorption [3]: very poorly absorbed
2 | CC1(C)S[C@@H]2[C@H](NC(=O)[C@H](N)c3ccc(O)cc3)C(=O)N2[C@H]1C(=O)O [Amoxicillin, amoxicillin] | > 200 mg/kg | > 200 mg/kg | < 100 mg/kg | < 100 mg/kg | – | – | – | – | – | – | – | – | ED50 [4]: > 50 mg/kg; ED50 [5]: > 50 mg/kg; MIC ([10]; read-out: Amoxicillin MICs, 12 penicillin-susceptible S. pneumoniae isolates): 0.0156 to 0.06 mg/L (≈ 0.0427 to 0.164 µM); MIC ([10]; read-out: Amoxicillin MICs, 21 penicillin-intermediate S. pneumoniae): 0.03 to 1 mg/L (≈ 0.0821 to 2.74 µM); MIC50 ([10]; read-out: amoxicillin MIC50): 2 mg/L (≈ 5.47 µM); MIC90 ([10]; read-out: amoxicillin MIC90): 4 mg/L (≈ 10.9 µM)
3 | CC1(C)[C@H](C(=O)[O-])N2C(=O)[C@@H](CO)[C@H]2S1(=O)=O.[Na+] [Na-HMPAS, 4-Thia-1-azabicyclo [3,2,0]heptane-2-carboxylic acid, 6-(hydroxymethyl)-3,3-dimethyl-7-oxo-,4,4-dioxide, monosodium salt, (2S,5R,6R)] | – | – | – | – | 0.32 µM | 0.01 µM | 0.143 µM | 0.68 µM | – | – | – | – | half-life at 100 μM [11]: 3.9 h; half-life at 100 μM [12]: 3.4 h; half-life at 100 μM [13]: > 4 h; half-life at 100 μM [14]: > 4 h; half-life at 100 μM [15]: > 4 h
4 | CC1(C)[C@H](C(=O)OCOC(=O)OC2CCOCC2)N2C(=O)[C@@H](CO)[C@H]2S1(=O)=O [Prodrug 1, 4-Thia-1-azabicyclo[3.2.0]heptane-2-carboxylic acid, 6-(hydroxymethyl)-3,3-dimethyl-7-oxo-,[[[(tetrahydro-2H-pyran-4-yl)oxy]carbonyl]oxy]methyl ester, 4,4-dioxide (2S,5R,6R)] | > 25 mg/kg | > 25 mg/kg | > 25 mg/kg | > 25 mg/kg | – | – | – | – | < 0.0333 h | < 0.0333 h | 0.167 h | 0.112 h | time to hydrolysis [20]: within a few minutes; melting point: 136 °C
5 | O=C(O)[C@H]1/C(=C/CO)O[C@@H]2CC(=O)N21 [Clavulanate, lithium clavulanate] | – | – | – | – | 0.11 µM | 0.04 µM | 0.14 µM | 19.6 µM | > 4 h | 3.3 h | 2.8 h | 2.6 h | half-life at 100 μM ([14]; monkey, plasma): 3.6 h
